This is an account of results in patent US20230092890A1, “1, 3, 4-Oxadiazole derivative compounds as histone deacetylase 6 inhibitor, and the pharmaceutical composition comprising the same” (Chong Kun Dang Pharmaceutical Corp., priority 2019, published 2023).

One experiment concerns the target T1, HDAC6 human recombinant (Homo sapiens, UniProt Q9UBN7).
T1 construct: purchased Calbiochem 382180
T1 sequence (Q9UBN7 1-1215): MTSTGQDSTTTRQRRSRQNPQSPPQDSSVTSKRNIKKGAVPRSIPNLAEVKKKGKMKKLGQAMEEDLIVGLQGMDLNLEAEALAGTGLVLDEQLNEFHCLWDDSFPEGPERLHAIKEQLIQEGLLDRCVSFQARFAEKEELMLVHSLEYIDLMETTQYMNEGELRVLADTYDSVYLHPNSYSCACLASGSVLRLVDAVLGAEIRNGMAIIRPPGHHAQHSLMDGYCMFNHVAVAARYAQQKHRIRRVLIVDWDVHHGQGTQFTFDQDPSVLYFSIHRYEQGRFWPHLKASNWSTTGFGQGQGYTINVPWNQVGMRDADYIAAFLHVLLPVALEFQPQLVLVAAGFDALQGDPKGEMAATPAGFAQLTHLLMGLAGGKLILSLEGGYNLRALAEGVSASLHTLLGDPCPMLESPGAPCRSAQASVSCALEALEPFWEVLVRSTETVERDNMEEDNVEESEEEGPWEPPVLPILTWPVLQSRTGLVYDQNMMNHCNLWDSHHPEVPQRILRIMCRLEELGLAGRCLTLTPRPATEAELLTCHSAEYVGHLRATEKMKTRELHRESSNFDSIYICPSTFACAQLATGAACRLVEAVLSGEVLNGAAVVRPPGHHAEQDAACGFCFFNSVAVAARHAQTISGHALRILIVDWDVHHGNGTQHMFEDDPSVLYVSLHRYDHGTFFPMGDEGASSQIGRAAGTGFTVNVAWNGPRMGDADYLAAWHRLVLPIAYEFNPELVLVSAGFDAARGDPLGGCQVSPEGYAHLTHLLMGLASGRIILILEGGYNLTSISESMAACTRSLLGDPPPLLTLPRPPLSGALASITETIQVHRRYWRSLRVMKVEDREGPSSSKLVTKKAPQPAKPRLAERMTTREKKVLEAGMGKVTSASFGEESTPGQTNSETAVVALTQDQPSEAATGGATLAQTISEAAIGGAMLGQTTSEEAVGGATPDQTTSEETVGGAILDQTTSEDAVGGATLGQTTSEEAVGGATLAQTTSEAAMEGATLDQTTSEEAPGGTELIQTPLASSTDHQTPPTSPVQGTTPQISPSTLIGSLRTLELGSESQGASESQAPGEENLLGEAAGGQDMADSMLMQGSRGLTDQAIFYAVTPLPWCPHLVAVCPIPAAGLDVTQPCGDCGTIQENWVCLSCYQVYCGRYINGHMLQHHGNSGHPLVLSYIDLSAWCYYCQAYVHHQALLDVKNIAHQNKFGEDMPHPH
Put plainly: HDAC enzyme activity inhibition (in vitro), HDAC6 assay. The settings on record: samples at 0.1, 1, 10, 100 and 1000 nM; 37° C. 60 minutes; fluorescence Ex 390, Em 460; read-out: HDAC6 IC50. In kind it is biochemical. In short, it runs like this:
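HDAC6 human recombinant enzyme with fluorimetric substrate; […]. Reaction 60 min at 37° C, then developer 30 min at 37° C; fluorescence read at Ex 390/Em 460.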

A further experiment addresses T2, HDAC1 (Homo sapiens, UniProt Q13547).
T2 construct: purchased Enzolifesciences BML-AK511
Put plainly: HDAC enzyme activity inhibition (in vitro), HDAC1 Fluorimetric Drug Discovery Assay Kit. In kind it is biochemical. The settings on record: samples at 100, 1000 and 10000 nM; 37° C. 60 minutes; fluorescence Ex 390, Em 460; read-out: HDAC1 IC50. In short, it runs like this: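 Compound incubated with enzyme 60 min at 37° C, then developer 30 min at 37° C; fluorescence read at Ex 390/Em 460. HDAC1 via fluorimetric kit, compounds at 100, 1000 and 10000 nM; HDAC6 human recombinant, compounds at 0.1, 1, 10, 100 and 1000 nM.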

T2 sequence (Q13547 whole entry): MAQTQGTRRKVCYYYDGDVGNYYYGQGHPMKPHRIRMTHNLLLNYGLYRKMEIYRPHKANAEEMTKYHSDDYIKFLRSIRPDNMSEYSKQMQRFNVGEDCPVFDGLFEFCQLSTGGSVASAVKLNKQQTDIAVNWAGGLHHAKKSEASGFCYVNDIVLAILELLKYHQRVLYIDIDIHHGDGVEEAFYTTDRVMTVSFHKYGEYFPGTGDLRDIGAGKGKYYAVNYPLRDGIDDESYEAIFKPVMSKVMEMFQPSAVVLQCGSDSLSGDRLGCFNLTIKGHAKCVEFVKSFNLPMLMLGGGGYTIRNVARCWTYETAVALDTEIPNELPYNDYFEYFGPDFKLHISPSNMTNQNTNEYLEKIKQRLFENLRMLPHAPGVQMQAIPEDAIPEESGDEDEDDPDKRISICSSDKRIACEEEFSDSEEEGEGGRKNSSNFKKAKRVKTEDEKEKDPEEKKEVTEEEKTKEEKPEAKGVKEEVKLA

As to `O=c1n(Cc2ccc(-c3nnc(C(F)F)o3)cn2)c2cc(F)c(-c3cccnc3)cc2n1[C@H]1CCCN(C2COC2)C1` [Compound 297, (S)-1-((5-(5-(difluoromethyl)-1,3,4-oxadiazole-2-yl)pyridine-2-yl)methyl)-6-fluoro-3-(1-(oxetan-3-yl)piperidine-3-yl)-5-(pyridine-3-yl)-1,3-dihydro-2H-benzo[d]imidazole-2-one], the IC50 was 10 nM at HDAC6 human recombinant and greater than 10000 nM on HDAC1.

As for `CCN1CCC[C@H](n2c(=O)n(Cc3ccc(-c4nnc(C(F)F)o4)cn3)c3cc(F)c(-c4cccnc4)cc32)C1` [Compound 298, (S)-1-((5-(5-(difluoromethyl)-1,3,4-oxadiazole-2-yl)pyridine-2-yl)methyl)-3-(1-ethylpiperidine-3-yl)-6-fluoro-5-(pyridine-3-yl)-1,3-dihydro-2H-benzo[d]imidazole-2-one], the IC50 on HDAC6 human recombinant is 9 nM; on HDAC1 it was greater than 10000 nM.

`O=c1n(Cc2ccc(-c3nnc(C(F)F)o3)cn2)c2cc(F)c(-c3ccncc3)cc2n1[C@H]1CCCN(C2COC2)C1` [Compound 299, (S)-1-((5-(5-(difluoromethyl)-1,3,4-oxadiazole-2-yl)pyridine-2-yl)methyl)-6-fluoro-3-(1-(oxetan-3-yl)piperidine-3-yl)-5-(pyridine-4-yl)-1,3-dihydro-2H-benzo[d]imidazole-2-one]: the IC50 at HDAC6 human recombinant was 13 nM; at HDAC1, greater than 10000 nM.

For `CCN1CCC[C@H](n2c(=O)n(Cc3ccc(-c4nnc(C(F)F)o4)cn3)c3cc(F)c(-c4ccncc4)cc32)C1` [Compound 300, (S)-1-((5-(5-(difluoromethyl)-1,3,4-oxadiazole-2-yl)pyridine-2-yl)methyl)-3-(1-ethylpiperidine-3-yl)-6-fluoro-5-(pyridine-4-yl)-1,3-dihydro-2H-benzo[d]imidazole-2-one], the IC50 at HDAC6 human recombinant is 13 nM; at HDAC1, greater than 10000 nM.

`O=c1n(Cc2ccc(-c3nnc(C(F)F)o3)cn2)c2cc(F)ccc2n1CC1CCN(C2COC2)CC1` [Compound 301, 3-((5-(5-(difluoromethyl)-1,3,4-oxadiazole-2-yl)pyridine-2-yl)methyl)-5-fluoro-1-((1-(oxetan-3-yl)piperidine-4-yl)methyl)-1,3-dihydro-2H-benzo[d]imidazole-2-one]: the IC50 was 29 nM at HDAC6 human recombinant and greater than 10000 nM at HDAC1.

On to `O=c1n(Cc2ccc(-c3nnc(C(F)F)o3)cn2)c2cc(F)ccc2n1C1CN(C2COC2)C1` [Compound 302, 3-((5-(5-(difluoromethyl)-1,3,4-oxadiazole-2-yl)pyridine-2-yl)methyl)-5-fluoro-1-(1-(oxetan-3-yl)azetidine-3-yl)-1,3-dihydro-2H-benzo[d]imidazole-2-one], for which the IC50 was 38 nM on HDAC6 human recombinant and greater than 10000 nM at HDAC1.

Turning to `Cn1c(=O)n(Cc2ccc(-c3nnc(C(F)F)o3)cn2)c2cc(F)c(N3CCN(Cc4cccnc4)CC3)cc21` [Compound 303, 1-((5-(5-(difluoromethyl)-1,3,4-oxadiazole-2-yl)pyridine-2-yl)methyl)-6-fluoro-3-methy 1-5-(4-(pyridine-3-ylmethyl)piperazine-1-yl)-1,3-dihydro-2H-benzo[d]imidazole-2-one], the IC50 at HDAC6 human recombinant was 29 nM; at HDAC1, greater than 10000 nM.

As to `O=c1oc2cc(-c3cccnc3)ccc2n1Cc1ccc(-c2nnc(C(F)F)o2)cn1` [Compound 304, 3-((5-(5-(difluoromethyl)-1,3,4-oxadiazole-2-yl)pyridine-2-yl)methyl)-6-(pyridine-3-yl) benzo[d]oxazole-2(3H)-one], the IC50 on HDAC6 human recombinant was 37 nM; on HDAC1, greater than 10000 nM.

On to `O=c1oc2cc(-c3ccncc3)ccc2n1Cc1ccc(-c2nnc(C(F)F)o2)cn1` [Compound 305, 3-((5-(5-(difluoromethyl)-1,3,4-oxadiazole-2-yl)pyridine-2-yl)methyl)-6-(pyridine-4-yl) benzo[d]oxazole-2(3H)-one], for which the IC50 on HDAC6 human recombinant is 50 nM; at HDAC1 it was greater than 10000 nM.

With `O=c1oc2cc(-c3cccc4[nH]ccc34)ccc2n1Cc1ccc(-c2nnc(C(F)F)o2)cn1` [Compound 306, 3-((5-(5-(difluoromethyl)-1,3,4-oxadiazole-2-yl)pyridine-2-yl)methyl)-6-(1H-indole-4-yl)benzo[d]oxazole-2(3H)-one], the IC50 on HDAC6 human recombinant is 34 nM; at HDAC1, greater than 10000 nM.

Turning to `CC(C)(C)OC(=O)N1CCC(c2ccc3c(c2)oc(=O)n3Cc2ccc(-c3nnc(C(F)F)o3)cn2)CC1` [Compound 307, tert-butyl 4-(3-((5-(5-(difluoromethyl)-1,3,4-oxadiazole-2-yl)pyridine-2-yl)methyl)-2-oxo-2,3-dihydrobenzo[d]oxazole-6-yl)piperidine-1-carboxylate], the values for the IC50 at HDAC6 human recombinant and at HDAC1 were 399 nM and greater than 10000 nM, respectively.

As for `O=c1oc2cc(C3CCNCC3)ccc2n1Cc1ccc(-c2nnc(C(F)F)o2)cn1` [Compound 308, 3-((5-(5-(difluoromethyl)-1,3,4-oxadiazole-2-yl)pyridine-2-yl)methyl)-6-(piperidine-4-yl)benzo[d]oxazole-2(3H)-one], the figures for the IC50 on HDAC6 human recombinant and on HDAC1 were 456 nM and greater than 10000 nM, respectively.

For `CN1CCC(c2ccc3c(c2)oc(=O)n3Cc2ccc(-c3nnc(C(F)F)o3)cn2)CC1` [Compound 309, 3-((5-(5-(difluoromethyl)-1,3,4-oxadiazole-2-yl)pyridine-2-yl)methyl)-6-(1-methylpiperidine-4-yl)benzo[d]oxazole-2(3H)-one], the IC50 at HDAC6 human recombinant is 53 nM; at HDAC1, greater than 10000 nM.

On to `O=c1n(Cc2ccc(-c3nnc(C(F)F)o3)cn2)c2cc(F)c(-c3cccc4[nH]ccc34)cc2n1C1CN(C2COC2)C1` [Compound 310, 1-((5-(5-(difluoromethyl)-1,3,4-oxadiazole-2-yl)pyridine-2-yl)methyl)-6-fluoro-5-(1H-indole-4-yl)-3-(1-(oxetan-3-yl)azetidine-3-yl)-1,3-dihydro-2H-benzo[d]imidazole-2-one], for which the figures for the IC50 at HDAC6 human recombinant and on HDAC1 were 6 nM and greater than 10000 nM, respectively.

Turning to `O=c1n(Cc2ccc(-c3nnc(C(F)F)o3)cn2)c2cc(F)c(-c3cccnc3)cc2n1C1CN(C2COC2)C1` [Compound 311, 1-((5-(5-(difluoromethyl)-1,3,4-oxadiazole-2-yl)pyridine-2-yl)methyl)-6-fluoro-3-(1-(oxetan-3-yl)azetidine-3-yl)-5-(pyridine-3-yl)-1,3-dihydro-2H-benzo[d]imidazole-2-one], the IC50 on HDAC6 human recombinant is 12 nM; at HDAC1 it was greater than 10000 nM.

As for `O=c1n(Cc2ccc(-c3nnc(C(F)F)o3)cn2)c2cc(F)c(-c3cn[nH]c3)cc2n1C1CN(C2COC2)C1` [Compound 312, 1-((5-(5-(difluoromethyl)-1,3,4-oxadiazole-2-yl)pyridine-2-yl)methyl)-6-fluoro-3-(1-(oxetan-3-yl)azetidine-3-yl)-5-(1H-pyrazole-4-yl)-1,3-dihydro-2H-benzo[d]imidazole-2-one], the IC50 at HDAC6 human recombinant was 6 nM; on HDAC1, greater than 10000 nM.

As for `CC(C)N1CCC(c2ccc3c(c2)oc(=O)n3Cc2ccc(-c3nnc(C(F)F)o3)cn2)CC1` [Compound 313, 3-((5-(5-(difluoromethyl)-1,3,4-oxadiazole-2-yl)pyridine-2-yl)methyl)-6-(1-isopropylpiperidine-4-yl)benzo[d]oxazole-2(3H)-one], the IC50 is 165 nM at HDAC6 human recombinant and greater than 10000 nM on HDAC1.

In the case of `O=c1oc2cc(C3CCN(C4COC4)CC3)ccc2n1Cc1ccc(-c2nnc(C(F)F)o2)cn1` [Compound 314, 3-((5-(5-(difluoromethyl)-1,3,4-oxadiazole-2-yl)pyridine-2-yl)methyl)-6-(1-(oxetan-3-yl)piperidine-4-yl)benzo[d]oxazole-2(3H)-one], the IC50 is 112 nM at HDAC6 human recombinant and greater than 10000 nM on HDAC1.

Broadly, the IC50 is the midpoint of a concentration-inhibition curve.
